Consider ten molecules from patent publication US6492389B1, “Small molecule inhibitors of BCL-2 proteins” (Thomas Jefferson University, priority 1998, dated 2002).

A word on the Kd: it is the free concentration of one partner at which half of the binding sites on the other are occupied at equilibrium, for simple one-to-one binding.

The test system of assay [1] is 697 cells. Put plainly: DNA fragmentation assay in 697 cells. Format: cell-based, human. The conditions noted are these: 50 μM, 48 hours. The protocol: The Bcl-transfected cells were incubated with Bcl-2 inhibitor test compounds at 50 μM for 24 hours and then examined for apoptosis by the following DNA fragmentation assay. Then the treated cells were washed in PBS, lysed in digestion buffer (100 mM NaCl, 10 mM Tris-Cl, pH8, 25 mM EDTA, pH 8, 0.5% SDS, 0.1 mg/ml proteinase K), and incubated overnight at 50° C. The samples were extracted three times with phenol-chloroform, precipitated with an equal volume isopropanol, and spun down for 15 minutes in a microcentrifuge at room temperature. The DNA precipitate was washed once with 70% ethanol and resuspended in TE buffer containing 200 μg/ml DNase-free RNase A (Boehringer Mannheim, Indianapolis, Ind.). Alter incubation at 37° C. for 30 min., the DNA was loaded into a 2% agarose mini-gel with 2 μg/ml ethidium bromide, and electrophoresis is run at 50 V for 2 hours in 0.5×TBE buffer. The gel was destained with water for 1 hour arid photographed under UV light.
First, the ethidium bromide stain concentration was 1 μg/ml instead of 2 μg/ml. Second, the cells for the assay comprised 697 cells. The 697 line is a human pre-B leukemia line with a t(1; 19) chromosomal translocation (no translocation involving Bcl-2). Bcl-2 is highly expressed in this line. The high expression of Bcl-2 in 697 cells was confirmed by protein immunoblot analysis (data not shown). […] DNA markers were phiX174 DNA with restriction endonuclease Hae III (Boehringer Mannheim, Indianapolis, Ind.). The cells were incubated with test compound at 50 μM concentration or Taxol at 5 μM concentration for 48 hours.

The next assay has as its target T1, Bcl-2 protein (Homo sapiens, UniProt P10415).
T1 construct: purified soluble Bcl-2 proteins purchased from Santa Cruz Biotechnology, Inc., Calif; purchased Santa Cruz Biotechnology, Inc
As to the kind of experiment: Bcl-2 competition binding assay (fluorescence polarization, Flu-1193 probe). The conditions noted are these: for concentration-dependent competition binding: increasing compound concentrations, HA14-1 1 to 100 μM.

The test system of assay [2] is HL-60 cell line transfected with Bcl-2. Put plainly: DNA fragmentation assay in Bcl-2-transfected HL-60 cells. Format: cell-based, human. The conditions noted are these: for DNA fragmentation (reversal of Bcl-2 block of apoptosis): 50 μM, 24 hours.
Another assay has as its system HL-60 neo line. As to the kind of experiment: Control apoptosis experiment in HL-60 neo line. The assay is classed as cell-based, human. As to conditions: 50 μM.
The subject of assay [3] is 697 cells. As to conditions: positive control; cited from earlier work.
The test system of assay [4] is HL-60 cell line transfected with Bcl-2. As to conditions: 50 μM etoposide; cited from earlier work.
The subject of assay [5] is HL-60 cell line (parent line). The conditions noted are these: 50 μM etoposide; cited from earlier work.

“Also recorded” adds a separate entry of the source.

T1 sequence (P10415 1-205 limits assumed): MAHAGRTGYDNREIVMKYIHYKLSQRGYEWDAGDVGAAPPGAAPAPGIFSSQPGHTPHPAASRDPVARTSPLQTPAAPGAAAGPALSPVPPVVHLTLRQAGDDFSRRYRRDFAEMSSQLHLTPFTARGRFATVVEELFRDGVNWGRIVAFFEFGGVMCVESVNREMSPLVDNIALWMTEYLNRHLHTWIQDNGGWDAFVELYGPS

Regarding `COc1ccc(CCNC(=O)c2sc3c([N+](=O)[O-])cc(C(F)(F)F)cc3[n+]2[O-])cc1OC` [HA02], in the assay with 697 cells [1], the “DNA fragmentation / apoptosis induction” value is reported as “induced DNA fragmentation to various extents”. In addition, at Bcl-2 protein, the concentration-dependent competition binding entry is recorded as “clear concentration-dependent competition binding was observed”. Further, the Kd at Bcl-2 protein (read-out: binding affinity (KD)) is 15 µM. Take `O=C1c2ccccc2SC(c2ccccc2)C1CN1CCN(C(C(=O)O)C(=O)O)CC1` (stereo not shown) [HA03]: the concentration-dependent competition binding entry on Bcl-2 protein was “clear concentration-dependent competition binding was observed”. For the molecule `Nc1nc(N)c2c(Oc3ccccc3)cccc2n1` [HA04], the “DNA fragmentation / apoptosis induction” value in the assay with 697 cells [1] was “induced DNA fragmentation to various extents”. For the same molecule, the concentration-dependent competition binding entry on Bcl-2 protein is “clear concentration-dependent competition binding was observed”.

Regarding `COc1cc(C2c3cc4c(cc3OC(N3CCOCC3)C2C)OCO4)cc(OC)c1O` (stereo not shown) [HA11-57, 2,6-DI-MEO-4-(7-ME-6-MORPHOLIN-4-YL-6H- [1,3]DIOXOLO[4,5-G]CHROMEN-8-YL)-PHENOL], the “DNA fragmentation (reversal of Bcl-2 block of apoptosis)” value in assay [2] is given as “DNA fragmentation is apparent”. For `O=C1Nc2ccccc2/C1=C/c1ccc[nH]1` [HA12-16], the “DNA fragmentation / apoptosis induction” value in the assay on 697 cells [1] (listed as HA01) is given as “induced DNA fragmentation to various extents; also recorded: induced apoptosis in the 697 cells”. Further, the “apoptosis induction in cells not regulated by Bcl-2” value in the assay on HL-60 neo line is on record as “lack of effect in inducing apoptosis”.

Turning to `CC(=O)c1cc(C(=O)c2ccccc2)n2ccc(Cc3ccc([N+](=O)[O-])cc3)cc12` [HA13], in assay [2], the “DNA fragmentation (reversal of Bcl-2 block of apoptosis)” value is reported as “DNA fragmentation is apparent”.

As for `CCOC(=O)C1=C(N)Oc2ccc(Br)cc2C1C(C#N)C(=O)OCC` (stereo not shown) [HA14-1, ETHYL 2-AMINO-6- BROMO-4-(1-CYANO-2- ETHOXY-2-OXOETHYL)- 4H-CHROMENE-3- CARBOXYLATE], the “DNA fragmentation after fluoromethyl ketone pretreatment” value in assay [2] (100 μM fluoromethyl ketone 2 hours, then 50 μM HA14-1 24 hours) is given as “neutralize the action of HA14-1”. Also, the concentration-dependent competition binding entry at Bcl-2 protein is listed as “clear concentration-dependent competition binding was observed”. Turning to `COC1OC2COC(c3ccccc3)O[C@H]2[C@@H](OC(C)=O)[C@H]1OS(=O)(=O)c1ccccc1` (stereo partly shown) [HA14], in assay [2], the “DNA fragmentation (reversal of Bcl-2 block of apoptosis)” value is on record as “DNA fragmentation is apparent”. Regarding `CC(=O)O[C@H]1C(=O)[C@@]2(C)[C@H]([C@H](OC(=O)c3ccccc3)[C@]3(O)C[C@H](OC(=O)[C@H](O)[C@@H](NC(=O)c4ccccc4)c4ccccc4)C(C)=C1C3(C)C)[C@]1(OC(C)=O)CO[C@@H]1C[C@@H]2O` [Taxol], in the assay on 697 cells [3], the “apoptosis induction in 697 cells (known)” value is “known to induce apoptosis in 697 cells”. As to `COc1cc([C@@H]2c3cc4c(cc3[C@@H](O[C@@H]3O[C@@H]5CO[C@@H](C)O[C@H]5[C@H](O)[C@H]3O)[C@H]3COC(=O)[C@H]23)OCO4)cc(OC)c1O` [etoposide], the “sensitivity of Bcl-2-transfected cells to apoptosis-inducing drug” value in assay [4] is listed as “resistant”. Further, the “sensitivity of cells to apoptosis-inducing drug” value in assay [5] was “sensitive”.
